Laboratory results taken from PubChem BioAssay AID256 (DTP/NCI, 2004).
Values joined by “and” are separate entries in the source; they are usually repeats but may differ in a detail not shown here. Identical values can stand only once. Toxic doses and inconclusive results are not listed. Rule for the calls: active = survival T/C of 150% or more; inactive = T/C below 125% in these data.

System: CD2F1 mice, L1210 leukemia ip, survival T/C
Assay: NCI In Vivo Anticancer Drug Screen. Data for tumor model L1210 Leukemia (intraperitoneal) in CD2F1 (CDF1) mice
Conditions: higher = longer survival
Procedure, shortened: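 Transplantable tumor in mice; compound-treated vs vehicle-treated groups. Read-out = treated/control ratio of the measured endpoint.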

[1] = endpoint: mean survival time, dose: 100.0 mg/kg/injection, schedule: Q01DX001 (ip), vehicle: saline
[2] = endpoint: mean survival time, dose: 200.0 mg/kg/injection, schedule: Q01DX001 (ip), vehicle: saline
[3] = endpoint: mean survival time, dose: 100.0 mg/kg/injection, schedule: Q01DX009 (ip), vehicle: saline with Tween-80
[4] = endpoint: mean survival time, dose: 200.0 mg/kg/injection, schedule: Q01DX009 (ip), vehicle: saline with Tween-80
[5] = endpoint: mean survival time, dose: 400.0 mg/kg/injection, schedule: Q01DX009 (ip), vehicle: saline with Tween-80
[6] = endpoint: mean survival time, dose: 25.0 mg/kg/injection, schedule: Q01DX001 (ip), vehicle: saline with Tween-80
[7] = endpoint: mean survival time, dose: 50.0 mg/kg/injection, schedule: Q01DX001 (ip), vehicle: saline with Tween-80
[8] = endpoint: mean survival time, dose: 50.0 mg/kg/injection, schedule: Q01DX009 (ip), vehicle: saline with Tween-80
[9] = endpoint: mean survival time, dose: 100.0 mg/kg/injection, schedule: Q04DX003 (ip), vehicle: saline with Tween-80
[10] = endpoint: mean survival time, dose: 200.0 mg/kg/injection, schedule: Q04DX003 (ip), vehicle: saline with Tween-80
[11] = endpoint: mean survival time, dose: 400.0 mg/kg/injection, schedule: Q04DX003 (ip), vehicle: saline with Tween-80
[12] = endpoint: mean survival time, dose: 100.0 mg/kg/injection, schedule: Q01DX001 (ip), vehicle: saline with Tween-80
[13] = endpoint: mean survival time, dose: 200.0 mg/kg/injection, schedule: Q01DX001 (ip), vehicle: saline with Tween-80
[14] = endpoint: mean survival time, dose: 400.0 mg/kg/injection, schedule: Q01DX001 (ip), vehicle: saline with Tween-80
[15] = endpoint: mean survival time, dose: 6.25 mg/kg/injection, schedule: Q04DX003 (ip), vehicle: saline with Tween-80
[16] = endpoint: mean survival time, dose: 12.5 mg/kg/injection, schedule: Q04DX003 (ip), vehicle: saline with Tween-80
[17] = endpoint: mean survival time, dose: 25.0 mg/kg/injection, schedule: Q04DX003 (ip), vehicle: saline with Tween-80

Measured: T/C

COc1cccc(/C=N/C(=S)NC2(C)C3CCC(C3)C2(C)C)c1O (centres undefined)
inactive: endpoint: mean survival time, dose: 12.5 mg/kg/injection, schedule: Q01DX009 (ip), vehicle: olive oil, sesame oil, peanut oil 98 % of control | endpoint: mean survival time, dose: 25.0 mg/kg/injection, schedule: Q01DX009 (ip), vehicle: olive oil, sesame oil, peanut oil 96 % of control | endpoint: mean survival time, dose: 50.0 mg/kg/injection, schedule: Q01DX009 (ip), vehicle: olive oil, sesame oil, peanut oil 90 % of control | endpoint: mean survival time, dose: 100.0 mg/kg/injection, schedule: Q01DX009 (ip), vehicle: olive oil, sesame oil, peanut oil 97 % of control | endpoint: mean survival time, dose: 200.0 mg/kg/injection, schedule: Q01DX009 (ip), vehicle: olive oil, sesame oil, peanut oil 96 % of control | endpoint: mean survival time, dose: 400.0 mg/kg/injection, schedule: Q01DX009 (ip), vehicle: olive oil, sesame oil, peanut oil 90 % of control

CN(Cc1cnc2nc(N)nc(N)c2n1)c1ccc(C(=O)N[C@@H](CCC(=O)O)C(N)=O)cc1
inactive: endpoint: mean survival time, dose: 3.0 mg/kg/injection, schedule: Q01DX009 (ip), vehicle: sodium bicarbonate 98 % of control | endpoint: mean survival time, dose: 6.0 mg/kg/injection, schedule: Q01DX009 (ip), vehicle: sodium bicarbonate 100 % of control | endpoint: mean survival time, dose: 12.0 mg/kg/injection, schedule: Q01DX009 (ip), vehicle: sodium bicarbonate 111 % of control | endpoint: mean survival time, dose: 50.0 mg/kg/injection, schedule: Q01DX009 (ip), vehicle: sodium bicarbonate 114 % of control

COC1CC(O)C(OS(=O)(=O)c2ccc(C)cc2)C(C)O1 (centres undefined)
inactive: [1] 112 % of control | [2] 100 % of control | endpoint: mean survival time, dose: 400.0 mg/kg/injection, schedule: Q01DX001 (ip), vehicle: saline 102 % of control

CN1C(=O)C=CC1=O
inactive: endpoint: mean survival time, dose: 0.5 mg/kg/injection, schedule: Q01DX009 (ip), vehicle: saline 101 % of control | endpoint: mean survival time, dose: 1.0 mg/kg/injection, schedule: Q01DX009 (ip), vehicle: saline 95 % of control | endpoint: mean survival time, dose: 2.0 mg/kg/injection, schedule: Q01DX009 (ip), vehicle: saline 93 % of control | endpoint: mean survival time, dose: 4.0 mg/kg/injection, schedule: Q01DX009 (ip), vehicle: saline 95 % of control

COc1ccc(COC(=O)Oc2ccc(C)cc2)cc1OC
inactive: [3] 100 % of control | [4] 102 % of control | [5] 98 % of control

S=C1OC(c2ccccc2)(c2ccccc2)c2ccsc21
inactive: [6] 95 % of control | [7] 95 % of control

Clc1nc2ccccc2c2ccccc12
inactive: [8] 97 % of control | [3] 94 % of control | [9] 109 % of control | [4] 92 % of control | [10] 111 % of control

O=C(CCC(=O)Nc1ccc(S(=O)(=O)NCCO)cc1)Nc1ccc(S(=O)(=O)NCCO)cc1
inactive: endpoint: mean survival time, dose: 12.5 mg/kg/injection, schedule: Q01DX001 (ip), vehicle: saline with Tween-80 105 % of control | endpoint: mean survival time, dose: 12.5 mg/kg/injection, schedule: Q04DX002 (ip), vehicle: saline with Tween-80 96 % of control | [6] 107 % of control | endpoint: mean survival time, dose: 25.0 mg/kg/injection, schedule: Q04DX002 (ip), vehicle: saline with Tween-80 96 % of control | [7] 97 % of control | endpoint: mean survival time, dose: 50.0 mg/kg/injection, schedule: Q04DX002 (ip), vehicle: saline with Tween-80 86 % of control

CC(=O)S[C@@H]1CC2=CC(=O)CC[C@]2(C)[C@H]2CC[C@@]3(C)[C@@H](CC[C@@]34CCC(=O)O4)[C@H]12
inactive: endpoint: mean survival time, dose: 100.0 mg/kg/injection, schedule: Q04DX003 (sc), vehicle: steriod suspending solution 95 % of control | endpoint: mean survival time, dose: 200.0 mg/kg/injection, schedule: Q04DX003 (sc), vehicle: steriod suspending solution 97 % of control | endpoint: mean survival time, dose: 400.0 mg/kg/injection, schedule: Q04DX003 (sc), vehicle: steriod suspending solution 98 % of control

COc1cc2c(c3ccccc13)CCCC2=O
inactive: [3] 95 % of control | [4] 92 % of control | [5] 97 % of control

C[n+]1ccc(/C=C\c2ccc(N(CCCl)CCCl)cc2)c2ccccc21
inactive: endpoint: mean survival time, dose: 6.25 mg/kg/injection, schedule: Q01DX009 (ip), vehicle: Klucel (hydroxypropylcellulose) (HPC) 98 % of control | endpoint: mean survival time, dose: 12.5 mg/kg/injection, schedule: Q01DX009 (ip), vehicle: Klucel (hydroxypropylcellulose) (HPC) 101 % of control | endpoint: mean survival time, dose: 25.0 mg/kg/injection, schedule: Q01DX009 (ip), vehicle: Klucel (hydroxypropylcellulose) (HPC) 112 % of control

O=C(OCC(F)(F)F)C(Cl)(Cl)Cl
inactive: endpoint: mean survival time, dose: 75.0 mg/kg/injection, schedule: Q01DX001 (ip), vehicle: saline 97 % of control | endpoint: mean survival time, dose: 150.0 mg/kg/injection, schedule: Q01DX001 (ip), vehicle: saline 107 % of control | endpoint: mean survival time, dose: 300.0 mg/kg/injection, schedule: Q01DX001 (ip), vehicle: saline 107 % of control

CC(C)=NNc1cc(N)nc2c1ncn2C1OC(CO)C(O)C1O (centres undefined)
inactive: endpoint: mean survival time, dose: 50.0 mg/kg/injection, schedule: Q01DX005 (ip), vehicle: water 90 % of control | endpoint: mean survival time, dose: 100.0 mg/kg/injection, schedule: Q01DX005 (ip), vehicle: water 94 % of control | endpoint: mean survival time, dose: 200.0 mg/kg/injection, schedule: Q01DX005 (ip), vehicle: water 104 % of control

O=S1OCC2(CO1)COS(=O)OC2 (centres undefined)
inactive: endpoint: mean survival time, dose: 3.13 mg/kg/injection, schedule: Q01DX001 (ip), vehicle: saline with Tween-80 108 % of control | endpoint: mean survival time, dose: 6.25 mg/kg/injection, schedule: Q01DX001 (ip), vehicle: saline with Tween-80 100 % of control

ClC1(Cl)C2(Cl)C3(Cl)C4(Cl)C(Cl)(Cl)C5(Cl)C3(Cl)C1(Cl)C5(Cl)C24Cl (centres undefined)
inactive: [3] 97 % of control | [9] 103 % of control | [4] 102 % of control | [10] 94 % of control | [5] 100 % of control | [11] 96 % of control

CNS(=O)(=O)c1ccc2c(c1)[nH]c(=S)n2C
inactive: [3] 97 % of control | [9] 96 % of control | [4] 93 % of control | [10] 92 % of control | [5] 93 % of control | [11] 90 % of control

Nc1ccc(Br)cc1
inactive: [9] 97 % of control | [10] 100 % of control | [11] 87 % of control

CN(C)CCC(=O)C(=Cc1ccc(O)cc1)C(=O)CCN(C)C
inactive: endpoint: median survival time, dose: 12.5 mg/kg/injection, schedule: Q01DX009 (ip), vehicle: saline 104 % of control | endpoint: median survival time, dose: 25.0 mg/kg/injection, schedule: Q01DX009 (ip), vehicle: saline 101 % of control | endpoint: median survival time, dose: 50.0 mg/kg/injection, schedule: Q01DX009 (ip), vehicle: saline 100 % of control | endpoint: median survival time, dose: 100.0 mg/kg/injection, schedule: Q01DX009 (ip), vehicle: saline 97 % of control | endpoint: median survival time, dose: 200.0 mg/kg/injection, schedule: Q01DX009 (ip), vehicle: saline 97 % of control

CN(C)/C=C1\NC(=S)NC1=O
inactive: [12] 95 % of control | [13] 91 % of control | [14] 91 % of control

OC1(C#CCC2(O)CCCCC2)CCCCC1
inactive: [12] 91 % of control | [13] 91 % of control | [14] 93 % of control

CC1=NC2=Nc3cc[n+](C4OC(CO)C(O)C4O)c(=O)n3CC2=CN1C (centres undefined)
inactive: endpoint: median survival time, dose: 12.5 mg/kg/injection, schedule: Q01DX005 (ip), vehicle: water 107 % of control | endpoint: median survival time, dose: 25.0 mg/kg/injection, schedule: Q01DX005 (ip), vehicle: water 105 % of control | endpoint: median survival time, dose: 50.0 mg/kg/injection, schedule: Q01DX005 (ip), vehicle: water 105 % of control | endpoint: median survival time, dose: 100.0 mg/kg/injection, schedule: Q01DX005 (ip), vehicle: water 105 % of control and 107 % of control | endpoint: median survival time, dose: 200.0 mg/kg/injection, schedule: Q01DX005 (ip), vehicle: water 103 % of control and 105 % of control | endpoint: median survival time, dose: 400.0 mg/kg/injection, schedule: Q01DX005 (ip), vehicle: water 104 % of control

CCOC(=N)c1ccccc1
inactive: [12] 94 % of control | endpoint: mean survival time, dose: 100.0 mg/kg/injection, schedule: Q04DX003 (ip), vehicle: Klucel (hydroxypropylcellulose) (HPC) 103 % of control | [13] 97 % of control | endpoint: mean survival time, dose: 200.0 mg/kg/injection, schedule: Q04DX003 (ip), vehicle: Klucel (hydroxypropylcellulose) (HPC) 101 % of control | [14] 102 % of control | endpoint: mean survival time, dose: 400.0 mg/kg/injection, schedule: Q04DX003 (ip), vehicle: Klucel (hydroxypropylcellulose) (HPC) 105 % of control

C=CCSc1cccc(C)c1
inactive: [1] 96 % of control | [2] 97 % of control

CS(=O)(=O)C(Cl)(Cl)S(C)(=O)=O
inactive: [15] 95 % of control | [16] 91 % of control | [17] 91 % of control

OCC(O)C(O)C(O)C(O)/C=N/O (centres undefined)
inactive: [8] 97 % of control | [3] 97 % of control | [4] 104 % of control

CNCCNC1=C(Cl)C(=O)c2ccccc2C1=O
inactive: [15] 101 % of control | [16] 101 % of control | [17] 96 % of control and 102 % of control
